Values of other authors as cited in US11559045B2, “Synergistic mixture for inducing hygienic behavior in honey bees, and related compositions and methods” (University of North Carolina at Greensboro, priority 2019, dated 2023).

System: honey bees
Conditions: previously shown (US 2018/0177160; Nazzi et al. 2004)

| Compound | induction of hygienic behavior in honey bees |
| --- | --- |
| CCCCCCCCC/C=C\CCCCCCCCCCCCCCCCCCCCCC [Compound (I), (Z)-10-tritriacontene] | induce hygienic behavior |
| CCCCC/C=C\CCCCCCCC [Compound (IV), (Z)-6-pentadecene] | induce hygienic behavior |
